Reference: patent US8263642B2, “Antimicrobial compounds and methods of use thereof” (Vanderbilt University, priority 2008, dated 2012)

Key:
[1] = test system: HssRS-dependent hrtAB expression; assay: Luminescence-based assay to monitor HssRS-dependent hrtAB expression (phrtABlux reporter), Newman; format: cell-based, Staphylococcus aureus; settings: Newman; for Luminescence: raw luminescence value obtained in a luminometer; for activation at 0.0825 µM: Staphylococcus aureus, NEWMAN, read-out: % Lumi, luminescence induced by the compound compared to the heme control (82.5 nM) in the same plate
Method: (§1) With reference to Table 1, “Luminescence” refers to the raw luminescence value obtained in a luminomter. “Control (82.5 nm)” refers to the luminescence value obtained from heme at 82.5 nM as a positive control in the same plate as the experimental. “% lum” is the percentage of luminescence induced by the compound as compared to the heme control in the same plate. […] All of these assays are described in the application. […] “N/T” indicates the test was not performed.
A hrtAB-driven expression system was created in the pXen vector system (Xenogen) (Francis, K. P., D. Joh, C. Bellinger-Kawahara, M. J. Hawkinson, T. F. Purchio, and P. R. Contag. 2000. Monitoring bioluminescent Staphylococcus aureus infections in living mice using a novel luxABCDE construct. Infect Immun 68:3594-3600). This vector contains a promoterless luxCDABE operon from Photorabdus luminescens which produces blue green light when expressed. The luxCDABE encodes for a fatty acid reductase (LuxCDE) that produces a long chain fatty aldehyde which, when combined with cellular flavin mononucleotide, is oxidized by a luciferase (LuxAB) to produce light. Therefore, this system is useful in that it bypasses the need for substrate addition and is capable of generating light in the absence of any added reagents. Furthermore, the luminescent signal produced by the combined activities of LuxAB and LuxCDE is of sufficient intensity to be visualized in unmanipulated intact bacteria.
To establish an assay that measures HssRS-dependent expression of luxCDABE, the promoter for hrtAB upstream of luxCDABE was cloned and transformed this vector (phrtABlux) into wildtype and ΔhssR S. aureus. A promoterless vector (plux) and a plasmid containing luxCDABE under the control of a constitutive promoter (psrtAlux) (Mazmanian, S. K., G. Liu, H. Ton-That, and O. Schneewind. 1999. “Staphylococcus aureus sortase, an enzyme that anchors surface proteins to the cell wall.” Science 285:760-763) were included as negative and positive controls, respectively. Initially, wildtype S. aureus harboring either plux, phrtABlux, or psrtAlux were plated on solid medium that either lacked heme or contained 4 μM heme. Only wildtype S. aureus containing psrtAlux produced light on solid media regardless of the presence or absence of heme. […] Light was not produced by bacteria containing plux in either condition.
To adapt this system for a HTS to measure ligand recognition by HssRS, luminescence of wildtype and ΔhssR harboring the above listed plasmids in liquid media with or without heme was measured. […] Taken together, these experiments establish a whole cell […] assay that can identify small molecule modifiers of HssRS. This screen, in some aspects, can identify molecules that can be used as molecular probes in structure-function analyses to determine the mechanism by which S. aureus sense host heme.
Upon staphylococcal exposure to heme, HssRS senses heme and activates expression of hrtAB. This process can be measured using a reporter assay that employs a vector encoding the light-producing luxCDABE operon under the control of the hrtAB promoter. This assay results in whole cell luminescence upon HssRS-dependent activation of hrtAB, forming the foundation for the development of an assay suitable for high-throughput screens for small molecule activators of HssRS.
To develop an automated HTS format, S. aureus wildtype and ΔhssR harboring reporter constructs (psrtAlux, phrtAlux, plux) can be grown for 15 hours at 37° C. in tryptic soy broth (TSB) containing 10 μg/ml chloramphenicol. The addition of chloramphenicol is useful to ensure that the staphylococci propagate the reporter plasmid upon cell division. Following growth, bacterial cultures can be normalized and 2×10^7 cells (approximately 2 μl) can be added to individual wells of black walled, clear bottomed, 96-well plates. […]

[2] = test system: hrtAB-driven expression of the xylE reporter gene; assay: XylE reporter assay (hrtAB promoter-xylE), Newman; format: cell-based, Staphylococcus aureus; settings: for XylE (0.05): level of XylE induction at 0.05 uM of the compound; for XylE (0.5): level of XylE induction at 0.5 uM of the compound; for XylE (5.0): level of XylE induction at 5.0 uM of the compound; for XylE (50.0): level of XylE induction at 50.0 uM of the compound
Method: as §1
Compounds that activate HssRS-driven hrtAB expression in the luciferase-based screen can be subjected to two separate counter screens to confirm these compounds as active hits. First, compounds of interest can be tested for their ability to activate expression of hrtAB in the XylE expression assay described hereinbelow. This is an in vitro assay that measures hrtAB-driven expression of the xylE reporter gene. The XylE-based reporter assay utilizes slightly more manipulations than the primary luciferase-based screen. […] It should be appreciated that a shortcoming of this counter screen is that it measures reporter gene expression, which is a similar activity as that measured in the primary assay. To address this shortcoming, compounds that are positive in both XylE- and luciferase-based assays can be subjected to a second counter screen as described hereinbelow.
S. aureus strains harboring the appropriate reporter construct were inoculated into 500 μl of TSB containing 10 μg/ml chloramphenicol in 1.5 ml tubes. Cultures were grown O/N at 37° C. with shaking. Bacteria were pelleted by centrifugation and spent medium was aspirated. The pellet was washed once with 500 μl of 20 mM potassium phosphate, pH 7.6, and resuspended in 150 μl of 100 mM potassium phosphate buffer, pH 8.0, 10% (v/v) acetone, 25 μg/ml lysostaphin. After 20 minute incubation at 37° C. and 5 minute incubation on ice, samples were centrifuged at 20,000 g for 30 minutes at 4° C. 1-10 μl of supernatant was added to a 96-well plate and 200 μl of 100 mM potassium phosphate, pH 8.0, 0.2 mM pyrocatechol was added to each well. Formation of 2-hydroxymuconic semialdehyde was tracked by measuring the absorbance at 375 nm every minute for 30 minutes on a Varian MP 50 microplate reader. Protein concentration in samples was determined by BCA (Pierce). One unit of specific activity of XylE in a sample is defined as the formation of 1 nmol of 2-hydroxymuconic semialdehyde per minute per milligram of cellular protein at 30° C. (Chien, Y., Manna, A. C., Projan, S. J., and Cheung, A. L. 1999, “SarA, a global regulator of virulence determinants in Staphylococcus aureus, binds to a conserved motif essential for sar-dependent gene regulation. J. Biol. Chem. 274, 37169-37176).
The hrtAB intergenic region was fused to the xylE structural gene by PCR-SOE. In the first reaction, primer P1B:[…] and P2B:[…] were used to amplify the hrtAB intergenic region from S. aureus strain Newman genomic DNA. In the second PCR reaction primers P3B:[…] and P4B:[…] were used to amplify the xylE structural gene using pALC1639 template DNA (provided by Dr. Ambrose Cheung) and PCR product purified using a Qiagen gel extraction kit. For the PCRSOE reaction, a 1:300 dilution of purified reaction 1 and reaction 2 PCR products was mixed and amplified by PCR using […]. This yielded a construct in which the hrtAB intergenic region is fused to the xylE gene in such a manner that the position of the start codon for xylE corresponds to the position of the start codon for […] in the hrtAB locus. The hrtAB promoter-xylE fusion DNA was then subcloned into pOS1. As a control we also constructed a promoterless xylE vector. The xylE gene was amplified from pACL1639 template DNA using the primers P1C:[…] and P2C:[…] and then cloned into the pOS1 vector.

| SMILES | Luminescence [1] | XylE (0.05) [2] | XylE (0.5) [2] | XylE (5.0) [2] | XylE (50.0) [2] | activation at 0.0825 µM [1] [%] |
| --- | --- | --- | --- | --- | --- | --- |
| O=C(Nc1ccc(-c2csc(Nc3cccc(Cl)c3)n2)cc1)c1ccccc1 | 3586 | 1 | 0.07 | 1 | 0.08 | – |
| O=C(Nc1ccc(NC(=O)c2ccccc2)c(Cl)c1)c1ccccc1 | 291 | 0.06 | 0.05 | 0.07 | 0.02 | 102 |
| O=C1c2ccccc2C(=O)C1C1=NNC(c2ccccc2)C1 (stereo not drawn) | 2680 | 0.05 | 0.06 | 0.1 | 0.8 | 81.7 |
| Cc1cc(-c2ccc(N)cc2)nc2ccc3ccccc3c12 | 576 | 0.09 | 0.06 | 0.02 | 0.04 | 136 |
| Cc1cc(C)c(S(=O)(=O)Nc2ccc(O)c(-c3c(O)ccc4ccccc34)c2)cc1C | 1574 | – | 0.03 | 0.06 | 0.05 | 354 |
| Oc1ccc(Nc2n[n+](-c3ccc(Cl)cc3)cc3ccccc23)cc1 | 2098 | 0.5 | 6 | 1 | 0.6 | – |
| CCC(C)NC(=O)c1sc2nc(C)nc(N3CCCCC3)c2c1C (stereo not drawn) | 2301 | 1 | 1 | 1 | 7 | – |
| COc1ccc(/C=C/c2nc3ccccc3c(=O)n2-c2cccc(C(=O)O)c2)cc1 | 1995 | – | 0.04 | 0.08 | 0.05 | 705 |
| O=c1c2ccccc2nc(/C=C\c2ccccc2F)n1-c1ccccc1F | 3115 | – | 1 | 0 | 0 | – |
| Brc1ccc2[nH]cc(-c3nc(-c4ccccc4)c(-c4ccccc4)[nH]3)c2c1 | 2549 | 0.4 | 2 | 1 | 1 | – |
| C/C=C/C=N/Nc1nnc2c(n1)[nH]c1ccccc12 | 1696 | 0.04 | 0.06 | 0.1 | 1 | 202 |
| COc1cc(OC)cc(C(=O)Nc2ccc(-c3nc4cc(C)ccc4o3)cc2)c1 | 1765 | – | 0.1 | 0.6 | 0 | 345 |
